# Literature values, collected in patent publication US20230139888A1, “MOISTURIZING PEEL CREAM FOR ENHANCING SKIN” (L'OREAL, priority 2021, published 2023).
# Conditions: acute oral toxicity, mutagenicity, skin irritation, skin sensitization, phototoxicity
structure (smiles),measurement,value
CC(c1ccccc1)c1ccc(O)cc1O (stereo not shown) [Phenylethyl resorcinol],adverse effects in basic toxicological tests,has not shown adverse effects
